Data taken from patent publication US7592351B2, “Substituted imidazo[1,2-a]pyridine compounds and pharmaceutical preparations containing substituted imidazo[1,2-a]pyridine compounds” (Gruenenthal GmbH, priority 2004, dated 2009).
Counter-ions that a name gives are not always drawn.

Key:
[1] = target: T1, vanilloid receptor VR1 (capsaicin receptor) (Rattus norvegicus, UniProt O35433); test: Determination of affinity for vanilloid receptor VR1 ([3H] resiniferatoxin binding, rat spinal cord membranes); design: species or system Sprague Dawley rats; settings: method (a); 10 μM; read-out: % VR1 binding % inhibition at 10 μM [2]
T1 construct: isolated from the spinal cord of male Sprague Dawley rats (breeder: Charles River Deutschland, 32699 Extertal) and used for preparation of the membrane; from tissue; host or cells: rat spinal cord (cervical region and one third of the thoracic region) membranes
T1 sequence (O35433 whole entry): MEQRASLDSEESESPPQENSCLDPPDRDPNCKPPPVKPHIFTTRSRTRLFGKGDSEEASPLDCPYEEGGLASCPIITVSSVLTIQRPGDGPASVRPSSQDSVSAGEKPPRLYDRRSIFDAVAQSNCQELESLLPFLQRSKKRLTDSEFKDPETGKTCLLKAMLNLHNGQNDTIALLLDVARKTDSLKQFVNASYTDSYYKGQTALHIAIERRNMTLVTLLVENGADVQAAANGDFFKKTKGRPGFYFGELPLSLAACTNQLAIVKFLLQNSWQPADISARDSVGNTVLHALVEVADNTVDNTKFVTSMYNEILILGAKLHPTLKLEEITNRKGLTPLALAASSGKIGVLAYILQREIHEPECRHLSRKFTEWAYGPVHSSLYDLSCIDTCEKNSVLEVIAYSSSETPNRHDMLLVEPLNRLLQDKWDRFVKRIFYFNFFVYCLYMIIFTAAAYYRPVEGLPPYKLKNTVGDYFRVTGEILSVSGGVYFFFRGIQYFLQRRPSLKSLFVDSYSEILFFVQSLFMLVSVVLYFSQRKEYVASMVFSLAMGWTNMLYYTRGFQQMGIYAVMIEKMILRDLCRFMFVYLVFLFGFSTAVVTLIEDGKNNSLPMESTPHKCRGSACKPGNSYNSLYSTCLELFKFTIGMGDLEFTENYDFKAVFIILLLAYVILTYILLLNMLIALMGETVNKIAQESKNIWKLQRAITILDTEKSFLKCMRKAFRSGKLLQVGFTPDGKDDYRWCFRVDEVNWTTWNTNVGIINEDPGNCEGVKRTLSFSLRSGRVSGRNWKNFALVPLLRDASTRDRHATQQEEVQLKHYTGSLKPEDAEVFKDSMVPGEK
From the text: This method was developed on the basis of the publication by Acs et al., J. Neurochem. 65, 301-308 (1995). The corresponding description is hereby introduced as a reference and is deemed to be part of the disclosure.
• Sprague Dawley rats weighing between 150-300 g • (breeder: Charles River Deutschland, 32699 Extertal, Germany) • HEPES (item no. H-3375, SIGMA) • NaCl (item no. 6400.1000; Merck) • KCl (item no.: 4936.1000; Merck) • HCl (item no.: 1.00317; Merck) • [^3H] resiniferatoxin ([^3H] RTX) (item no.: NET-1132, Perkin-Elmer) • Resiniferatoxin (RTX, cold) (item no.: 550-179-M001, Alexis) • D-Glucose (item no.: 1.08337.1000, Merck) • Sucrose (item no.: S-9378, Sigma) • α1-acid glycoprotein (item no.: G-3643, Sigma) • BSA (bovine serum albumin, item no.: A-2153, Sigma) • GF/B filter mats (Brandel Inc., cat. no. FP 100, size: 2¼″×12¼″)
Buffer: (Concentration values in brackets in each case in mM)
• HEPES (10); KCl (5); NaCl (5.8); CaCl (0.75); MgCl (2.0); D-glucose (12); • sucrose (137). The pH value is adjusted at room temperature using 20% strength HCl. B. Preparation of Membranes
The cervical region and one third of the following thoracic region is isolated from the spinal cord of male Sprague Dawley rats (breeder: Charles River Deutschland, 32699 Extertal) and used for preparation of the membrane. After the combined tissue is weighed, it is homogenized in ice-cooled buffer of the above-stated composition. 20 ml of buffer were used per 1 g of tissue (1:20 weight/volume). Homogenisation performed with a homogeniser from Kinematica, model Polytron PT-3000 with PT-DA-3012/2 drive unit. The spinal cord tissue is disrupted within 60 seconds in the cold buffer with ice cooling at a rotational speed of 6000 rpm. The material is then centrifuged for 10 minutes at 1000 g and +4° C. and the resultant precipitate discarded. The […] in the same volume of buffer of the above-stated composition. The material is then centrifuged for 40 minutes at 48,000 g and +4° C. and the supernatant discarded. The resultant precipitate is resuspended in 30 ml of buffer of the above-stated composition and used in this form in the vanilloid receptor (VR1) assay.
Incubation is performed in the water bath for one hour at 37° C. The samples are then placed in an ice bath for 15 minutes. In order to minimise nonspecific adsorption of the RTX, 100 μg of α1-acid glycoprotein (in 50 μl of buffer) are added to each incubation tube. The samples are then thoroughly mixed on a vortex shaker and left to stand for 10 minutes. The batches are then filtered with the assistance of the model M-24R “Brandel Cell Harvester” through a GF/B glass fiber filter mat which has been presoftened in tris buffer. The filter is then rinsed through 3 times with 4 ml portions of ice-cold HEPES buffer of the above-stated composition for each sample. The filters are transferred into scintillation counter vessels, each is combined with a 10 ml portion of “Ready Protein” scintillating material, and the vessels are closed with screw caps. The vessels are shaken on the vortex shaker and left to stand for at least 15 hours in the fume cupboard. The samples are then measured on the β-counter (model 1409 Wallac, Perkin Elmer, 63110 Rogau-Jügesheim, Germany).

[2] = target: T2, cannabinoid receptor 1 (CB1) (Rattus norvegicus, UniProt P20272); test: Determination of affinity for cannabinoid receptor 1 (CB1) ([3H] WIN55,212-2 binding, rat cerebellum membranes); design: species or system Sprague Dawley rats; settings: method (c)
T2 construct: Tissue: rat cerebellum; from tissue; host or cells: rat cerebellum membranes
T2 sequence (P20272 whole entry): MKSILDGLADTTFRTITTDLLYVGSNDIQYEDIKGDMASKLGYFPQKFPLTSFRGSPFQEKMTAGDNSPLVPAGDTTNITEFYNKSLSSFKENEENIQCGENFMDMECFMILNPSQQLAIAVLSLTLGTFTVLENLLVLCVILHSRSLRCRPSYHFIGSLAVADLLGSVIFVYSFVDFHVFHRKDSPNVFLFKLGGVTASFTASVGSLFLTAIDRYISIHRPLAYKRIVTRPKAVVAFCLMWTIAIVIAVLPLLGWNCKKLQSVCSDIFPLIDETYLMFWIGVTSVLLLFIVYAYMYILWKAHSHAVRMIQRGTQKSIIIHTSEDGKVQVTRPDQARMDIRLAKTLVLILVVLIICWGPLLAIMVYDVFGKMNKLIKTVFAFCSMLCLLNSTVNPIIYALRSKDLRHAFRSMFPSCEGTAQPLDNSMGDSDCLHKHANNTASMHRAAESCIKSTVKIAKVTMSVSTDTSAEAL
From the text: (c) Determination of Affinity for Cannabinoid Receptor 1 (CB1)
The method was developed on the basis of the publication of D'Ambra et al, J. Med. Chem. 35, 124-135 (1992), but at variance therewith the ligand stated below is used. The disclosure of this article is hereby incorporated by reference.
• Sprague Dawley rats weighing between 150-350 g • (breeder: Charles River Deutschland, 32699 Extertal, Germany) • Ligand: [^3H] WIN55, 212-2; Perkin Elmer, item. no. NET 1058 • Ligand cold: WIN 55, 212-2 mesylate; Tocris; item. no. 1038 • HEPES: Sigma, item no. H-3375 • BSA: Sigma, item no. A-2153 • GF/B filter mats (Brandel Inc., cat. no. FP 100, size 2¼″×12¼″) • Ready Protein scintillating material (item no. 586604, Beckmann, 85716 Unterschlei ? heim) • Tissue: rat cerebellum • Tissue & incubation buffer: 20 mM HEPES pH 7.0. • Filtration buffer: 20 mM HEPES pH 7.0 containing 0.5 mg of BSA/ml which prevents adsorption. • Filter mat softening buffer: 20 mM HEPES pH 7.0 containing 5 mg of BSA/ml. B. Preparation of Cerebellum:
20 ml of ice-cooled buffer are used per 1 g of brain tissue. The brain tissue is disrupted within 30 seconds in the cold buffer with ice cooling at a rotational speed of 6000 rpm using a homogeniser from Kinematica, model Polytron PT-3000 with PT-DA-3012/2 drive unit. The resultant homogenate is then diluted with cold buffer to a ratio of 100 ml/g of tissue. Centrifugation is then performed for 15 minutes at 49,000 g and 4° C. Once centrifugation is complete, the supernatants are decanted and the precipitates resuspended in fresh, cold buffer. Acceptable suspension of the pellets is obtained at only 1000 rpm in the homogeniser with ice cooling and a processing time of at most 60 seconds. This last centrifugation step is repeated twice more (in each case washed with 20 mM HEPES pH 7.0). The precipitated is then suspended with buffer in a ratio of 1:120 (weight/volume).
Incubation is performed for 90 minutes at room temperature, i.e. 25° C. The batches are then rapidly suction filtered with the assistance of the Brandel Cell Harvester (model M-24-R, Adi Hassel, 80809 Munich, Germany) through GF/B filter mats, which have previously been softened in HEPES buffer pH 7.0 containing 5 mg/ml of BSA, and rewashed with 20 ml of filtration buffer (ice-cooled). After transferring the filters into scintillation vials and adding a 10 ml portion of scintillation liquid (Ready Protein) to each and then leaving to stand for 15 hours, the samples are measured in the scintillation counter (Perkin Elmer, model Wallac 1409).

vanilloid receptor (VR1) = target: T3, vanilloid receptor (VR1) (Rattus norvegicus, UniProt O35433); test: Functional investigations on vanilloid receptor (VR1): Ca2+ influx FLIPR assay in CHO K1 cells stably transfected with the VR1 gene; format: cell-based, rats; settings: for inhibition at 10 µM: CHO-K1, read-out: % Inhibition [1]; for % Activation [1]: method (b), substance 10 μM, relative to Ca2+ signal after 10 μM capsaicin, means from 4–5 measurements
T3 construct: expressed in transfected cells; host or cells: CHO K1 cells (ECACC)
T3 sequence (O35433 whole entry): as the sequence (O35433 whole entry) above
From the text: (b) Functional Investigations on Vanilloid Receptor (VR1)
The agonistic or antagonistic action of the substances to be investigated on the vanilloid receptor (VR1) may be determined with the following assay. According to this assay, the influx of Ca^2+ through the channel is quantified with the assistance of a Ca^2+-sensitive dye (type Fluo4, Molecular Probes Europe BV, Leiden, Netherlands) in a Fluorescent Imaging Plate Reader (FLIPR, Molecular Devices, Sunnyvale, USA).
Chinese hamster ovary cells (CHO K1 cells, European Collection of Cell Cultures (ECACC), Great Britain) are stably transfected with the VR1 gene. For functional investigations, these cells are plated out onto poly-D-lysine-coated, black 96 well plates with a clear bottom (BD Biosciences, Heidelberg, Germany) at a density of 25,000 cells/well. The cells are incubated overnight at 37° C. and 5% CO2 in a culture medium (Ham's Nutrient Mixture F12, 10 vol. % FCS (foetal calf serum), 18 μg/mL L-proline). On the following day, the cells are incubated with Fluo4 (Fluo4 2 μM, Pluronic F127 0.01 vol. %, Molecular Probes in HBSS (Hank's buffered saline solution), Gibco Invitrogen GmbH, Karlsruhe, Germany) for 30 minutes at 37° C. The plates are then washed 3 times with HBSS buffer and, after a further 15 minutes' incubation at room temperature, used for Ca^2+ measurement in the FLIPR. Ca^2+-dependent fluorescence is here measured before and after addition of the substances to be investigated (wavelength λex=488 nm, λem=540 nm). Quantification proceeds by measuring the highest fluorescence intensity (FC, fluorescence counts) over time.
The FLIPR protocol comprises 2 additions of substance. […] The percentage inhibition in comparison with the maximum achievable inhibition with 10 μM capsazepine is calculated.

Cc1cc(C)n2c(NC(C)(C)CC(C)(C)C)c(-c3ccsc3)nc2c1 [Example 1, (5,7-Dimethyl-2-thiophen-3-yl-imidazo[1,2-a]pyridin-3-yl)-(1,1,3,3-tetramethylbutyl)-amine hydrochloride]
inhibition at 10 µM [1]: 42.5%
inhibition at 10 µM [2]: 43%

CC(C)(C)CC(C)(C)Nc1c(-c2ccsc2)nc2ccccn12 [Example 2, (1,1,3,3-Tetramethylbutyl)-(2-thiophen-3-yl-imidazo-[1,2-a]pyridin-3-yl)amine hydrochloride]
inhibition at 10 µM [1]: 36%
inhibition at 10 µM (vanilloid receptor (VR1)): 32.2%
inhibition at 10 µM [2]: 47%

Cc1ccn2c(NC(C)(C)CC(C)(C)C)c(-c3ccsc3)nc2c1.Cl [Example 3, (7-Methyl-2-thiophene-3-yl-imidazo[1,2-a]pyridin-3-yl)-(1,1,3,3-tetramethylbutyl)-amine hydrochloride]
inhibition at 10 µM (vanilloid receptor (VR1)): 65%
% Activation [1] (vanilloid receptor (VR1)): 30.1%
inhibition at 10 µM [2]: 35.5%

CC(C)(C)CC(C)(C)Nc1c(-c2ccoc2)nc2ccccn12 [Example 4, (2-Furan-3-yl-imidazo[1,2-a]pyridin-3-yl)-(1,1,3,3-tetramethylbutyl)amine hydrochloride]
inhibition at 10 µM (vanilloid receptor (VR1)): 44.1%
inhibition at 10 µM [2]: 35%

Cc1ccn2c(NC(C)(C)CC(C)(C)C)c(-c3ccoc3)nc2c1.Cl [Example 5, (2-Furan-3-yl-7-methyl-imidazo[1,2-a]pyridin-3-yl)-(1,1,3,3-tetramethylbutyl)amine hydrochloride]
inhibition at 10 µM (vanilloid receptor (VR1)): 80.7%
% Activation [1] (vanilloid receptor (VR1)): 32.4%
inhibition at 10 µM [2]: 32.7%
